Data reported in the NIST ThermoML archive (doi:10.1021/je400130b).

Assay: molar heat capacity at constant pressure
Conditions: 101.33 kPa, Crystal, Small (less than 1 g) adiabatic calorimetry

O=S(=O)([O-])[O-].[Cu+2].[Cu+2].[Cu+2].[OH-].[OH-].[OH-].[OH-] [copper(II) tetrahydroxide sulfate]
Conditions	molar heat capacity at constant pressure [J/K/mol]
144.68 K	141.3
145.22 K	142.14
147.87 K	144.34
148.42 K	144.91
150 K	146.3
151.08 K	147.15
151.63 K	147.79
153.75 K	149.17
154.85 K	150.6
155.89 K	151.01
158.03 K	152.89
158.08 K	153.14
160 K	154.8
160.17 K	154.93
161.31 K	155.76
162.32 K	156.42
164.47 K	158.12
164.54 K	158.38
166.62 K	159.83
167.79 K	161.29
168.77 K	161.72
170 K	162.9
170.92 K	163.42
171.04 K	163.63
173.08 K	165.15
174.3 K	166.52
175.23 K	166.71
177.4 K	168.6
177.57 K	168.98
179.56 K	169.93
180 K	170.9
180.86 K	171.6
181.72 K	171.53
183.88 K	173.5
184.14 K	174.07
186.04 K	174.91
187.43 K	176.58
188.2 K	176.89
190 K	178.5
190.37 K	178.59
190.73 K	179
192.53 K	179.84
194.03 K	181.5
194.69 K	181.95
196.86 K	183.62
197.33 K	184.05
199.04 K	185.07
200 K	185.9
200.64 K	186.38
201.21 K	186.11
203.39 K	188.25
203.96 K	188.7
205.57 K	189.66
207.29 K	191
207.76 K	190.53
209.94 K	192.52
210 K	192.8
210.62 K	193.2
212.16 K	193.78
213.96 K	195.29
214.35 K	195.47
216.54 K	197.08
217.3 K	197.61
218.74 K	198.53
220 K	199.5
220.63 K	199.85
220.93 K	199.41
223.12 K	200.77
223.97 K	202.1
225.3 K	202.74
227.29 K	204.34
227.48 K	203.96
229.65 K	205.76
230 K	206.1
230.62 K	206.56
231.82 K	207.32
233.94 K	208.88
233.99 K	208.88
236.16 K	210.12
237.24 K	210.9
238.32 K	211.49
240 K	212.7
240.47 K	213.05
240.54 K	213.1
242.63 K	214.29
243.84 K	215.04
244.78 K	215.47
246.91 K	216.48
247.12 K	217.09
249.05 K	217.96
250 K	218.9
250.39 K	219.06
251.18 K	219.63
253.31 K	221.05
253.64 K	221.26
255.43 K	222.37
256.89 K	223.31
257.55 K	223.64
259.67 K	224.86
260 K	225.1
260.12 K	225.23
261.78 K	226.04
263.34 K	227.07
263.89 K	227.38
265.99 K	228.04
266.52 K	229.07
268.1 K	229.52
269.68 K	230.88
270 K	231.1
270.18 K	231.01
272.26 K	232.16
272.81 K	232.32
273.15 K	232.9
274.34 K	233.42
275.92 K	234.35
276.41 K	234
278.48 K	235.58
278.99 K	236.21
280 K	236.7
280.47 K	237.16
282.03 K	237.88
282.51 K	238.07
284.55 K	239.1
284.97 K	239.95
286.57 K	240.28
287.96 K	241.21
288.59 K	241.63
290 K	242.2
290.6 K	242.66
290.92 K	242.32
292.61 K	243.54
293.88 K	243.77
294.6 K	244.61
296.58 K	245.63
296.81 K	245.8
298.15 K	246.6
298.56 K	246.66
299.68 K	247.51
300 K	247.6
300.53 K	247.64
302.49 K	248.72
302.54 K	249.04
304.44 K	249.67
305.37 K	250.52
306.39 K	250.6
308.18 K	251.84
308.34 K	251.49
310 K	252.8
310.27 K	252.37
310.97 K	253.24
312.09 K	253.75
313.74 K	254.51
314.01 K	254.23
315.94 K	255.03
316.5 K	255.82
317.86 K	255.92
319.23 K	257.03
319.77 K	256.66
320 K	257.4
321.68 K	257.57
321.95 K	258.16
323.58 K	258.37
